The supplement of paper PMC10307832

How the values were obtained:
Assay in all cases: relative viability (nuclei count vs DMSO), 5 days (fraction); higher = more cells survive
Entinostat + Dasatinib = compound: Nc1ccccc1NC(=O)c1ccc(CNC(=O)OCc2cccnc2)cc1 [Entinostat] + Cc1nc(Nc2ncc(C(=O)Nc3c(C)cccc3Cl)s2)cc(N2CCN(CCO)CC2)n1 [Dasatinib] (partner 0.075 µM)
In short: (§1)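 Relative viability was taken as the ratio of nuclei in treated wells to nuclei in vehicle wells. Lung cancer cell lines in 1536-well plates received compounds by pin tool one day after seeding, either one drug alone or a fixed anchor-drug dose plus five library-drug doses (not always all listed) in √10 steps. Nuclei were counted on 4× images after 5 days of treatment, and values are medians of duplicate plates.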

SGI-1776 + Foretinib = compound: CN1CCC(CNc2ccc3ncc(-c4cccc(OC(F)(F)F)c4)n3n2)CC1 [SGI-1776] + COc1cc2c(Oc3ccc(NC(=O)C4(C(=O)Nc5ccc(F)cc5)CC4)cc3F)ccnc2cc1OCCCN1CCOCC1 [Foretinib] (partner 0.25 µM)
In short: as §1

SGI-1776 + Pemetrexed = compound: CN1CCC(CNc2ccc3ncc(-c4cccc(OC(F)(F)F)c4)n3n2)CC1 [SGI-1776] + Nc1nc2[nH]cc(CCc3ccc(C(=O)N[C@@H](CCC(=O)O)C(=O)O)cc3)c2c(=O)[nH]1 [Pemetrexed] (partner 0.2 µM)
In short: as §1

Entinostat + Pemetrexed = compound: Nc1ccccc1NC(=O)c1ccc(CNC(=O)OCc2cccnc2)cc1 [Entinostat] + Nc1nc2[nH]cc(CCc3ccc(C(=O)N[C@@H](CCC(=O)O)C(=O)O)cc3)c2c(=O)[nH]1 [Pemetrexed] (partner 0.2 µM)
In short: as §1

Cell Line	relative viability (Entinostat + Dasatinib; first compound 0.02 µM)	relative viability (Entinostat + Dasatinib; first compound 0.06325 µM)	relative viability (Entinostat + Dasatinib; first compound 0.2 µM)	relative viability (Entinostat + Dasatinib; first compound 0.6325 µM)	relative viability (Entinostat + Dasatinib; first compound 2 µM)	relative viability (SGI-1776 + Foretinib; first compound 0.08 µM)	relative viability (SGI-1776 + Foretinib; first compound 0.8 µM)	relative viability (SGI-1776 + Foretinib; first compound 2.53 µM)	relative viability (SGI-1776 + Foretinib; first compound 8 µM)	relative viability (SGI-1776 + Pemetrexed; first compound 0.08 µM)	relative viability (SGI-1776 + Pemetrexed; first compound 0.8 µM)	relative viability (SGI-1776 + Pemetrexed; first compound 2.53 µM)	relative viability (SGI-1776 + Pemetrexed; first compound 8 µM)	relative viability (Entinostat + Pemetrexed; first compound 0.02 µM)	relative viability (Entinostat + Pemetrexed; first compound 0.06325 µM)	relative viability (Entinostat + Pemetrexed; first compound 0.2 µM)	relative viability (Entinostat + Pemetrexed; first compound 0.6325 µM)	relative viability (Entinostat + Pemetrexed; first compound 2 µM)
NCI-H596	0.627	0.593	0.576	0.448	0.378	0.808	0.748	0.79	1.05	0.442	0.51	0.505	0.461	0.499	0.514	0.528	0.439	0.446
NCI-H647	0.197	0.133	0.144	0.0844	0.064	1.22	1.24	1.18	1.15	0.172	0.151	0.166	0.145	0.192	0.184	0.161	0.0878	0.0714
NCI-H650	0.496	0.498	0.455	0.357	0.26	1.09	1.03	1.02	0.936	1.02	0.91	0.949	0.841	0.952	0.951	0.833	0.794	0.353
NCI-H661	1.04	0.967	1.03	0.771	0.372	1.03	1.04	1.07	1.03	0.938	0.89	0.917	0.889	0.886	0.916	0.814	0.663	0.354
NCI-H838	0.424	0.324	0.455	0.469	0.258	1.08	1.05	1.05	0.669	0.232	0.29	0.258	0.189	0.231	0.222	0.268	0.247	0.183
NCI-H1355	0.69	0.687	0.583	0.429	0.306	0.953	1.02	0.958	0.919	1.09	1.07	1.01	1.03	0.99	0.945	0.874	0.749	0.614
NCI-H1395	0.477	0.425	0.42	0.286	0.405	1.05	0.975	1.01	0.857	0.876	0.836	0.784	0.605	0.884	1.05	0.911	0.76	0.719
NCI-H1437	0.434	0.423	0.188	0.137	0.126	1.23	1.29	1.37	1.17	0.3	0.328	0.28	0.265	0.318	0.282	0.231	0.178	0.148
NCI-H1563	0.465	0.48	0.438	0.461	0.42	0.949	0.952	0.92	0.888	0.929	0.847	0.765	0.726	0.77	0.906	0.837	0.826	0.679
NCI-H1650	0.385	0.354	0.407	0.284	0.212	1.02	0.974	0.729	0.447	0.348	0.367	0.36	0.296	0.389	0.455	0.44	0.359	0.241
NCI-H1651	0.447	0.527	0.402	0.338	0.192	0.787	0.75	0.985	0.794	0.672	0.736	0.604	0.456	0.715	0.777	0.655	0.639	0.435
NCI-H1666	0.751	0.781	0.833	0.595	0.455	0.975	0.956	0.948	0.914	0.895	0.917	0.893	0.789	0.866	0.989	0.913	0.75	0.579
NCI-H1734	0.486	0.585	0.578	0.476	0.403	0.786	0.913	0.927	0.483	0.412	0.371	0.399	0.377	0.436	0.419	0.492	0.414	0.382
NCI-H1755	0.431	0.503	0.445	0.28	0.218	0.949	0.931	0.881	0.854	0.465	0.443	0.425	0.372	0.422	0.437	0.407	0.358	0.374
NCI-H1793	0.422	0.404	0.376	0.228	0.192	0.953	0.597	0.5	0.184	0.947	1.17	0.835	0.689	0.984	1.08	1.08	0.572	0.316
NCI-H1915	0.336	0.27	0.238	0.173	0.151	1.09	1.03	1.11	1.09	0.481	0.463	0.497	0.47	0.417	0.536	0.475	0.403	0.188
NCI-H1944	0.226	0.205	0.199	0.17	0.175	0.869	0.83	0.926	0.713	0.727	0.757	0.591	0.559	0.498	0.576	0.465	0.244	0.22
NCI-H1975	0.352	0.307	0.316	0.199	0.134	0.961	0.943	0.827	0.692	0.29	0.288	0.289	0.273	0.283	0.306	0.27	0.219	0.185

Cell Line	relative viability (Entinostat + Dasatinib; first compound 0.02 µM)	relative viability (Entinostat + Dasatinib; first compound 0.06325 µM)	relative viability (Entinostat + Dasatinib; first compound 0.2 µM)	relative viability (Entinostat + Dasatinib; first compound 0.6325 µM)	relative viability (Entinostat + Dasatinib; first compound 2 µM)	relative viability (SGI-1776 + Foretinib; first compound 0.08 µM)	relative viability (SGI-1776 + Foretinib; first compound 0.8 µM)	relative viability (SGI-1776 + Foretinib; first compound 2.53 µM)	relative viability (SGI-1776 + Foretinib; first compound 8 µM)	relative viability (SGI-1776 + Pemetrexed; first compound 0.08 µM)	relative viability (SGI-1776 + Pemetrexed; first compound 0.8 µM)	relative viability (SGI-1776 + Pemetrexed; first compound 2.53 µM)	relative viability (SGI-1776 + Pemetrexed; first compound 8 µM)	relative viability (Entinostat + Pemetrexed; first compound 0.02 µM)	relative viability (Entinostat + Pemetrexed; first compound 0.06325 µM)	relative viability (Entinostat + Pemetrexed; first compound 0.2 µM)	relative viability (Entinostat + Pemetrexed; first compound 0.6325 µM)	relative viability (Entinostat + Pemetrexed; first compound 2 µM)
NCI-H1993	0.747	0.591	0.535	0.496	0.259	0.819	0.761	0.688	0.695	0.61	0.569	0.559	0.548	0.53	0.609	0.558	0.536	0.472
NCI-H2009	0.329	0.331	0.376	0.346	0.241	1.19	1.27	1.24	0.931	0.912	1.05	1.15	0.954	0.949	0.965	0.963	0.84	0.619
NCI-H2023	0.55	0.439	0.326	0.135	0.0809	0.96	0.857	0.675	0.328	0.282	0.222	0.244	0.174	0.199	0.192	0.152	0.127	0.0994
NCI-H2085	0.226	0.243	0.228	0.248	0.244	0.864	0.864	0.852	0.715	0.936	1.06	0.971	0.788	0.826	0.918	0.869	0.712	0.532
NCI-H2087	1	0.837	0.711	0.373	0.204	1.1	1.17	0.843	0.376	0.672	0.607	0.68	0.651	0.68	0.581	0.67	0.613	0.304
NCI-H2126	0.615	0.545	0.443	0.349	0.268	1.29	1.27	1.44	1.06	0.736	0.693	0.693	0.624	0.71	0.687	0.674	0.405	0.306
NCI-H2170	0.532	0.636	0.69	0.558	0.365	0.959	1	1.02	0.987	0.225	0.287	0.254	0.295	0.255	0.283	0.273	0.228	0.229
NCI-H2228	0.446	0.358	0.3	0.208	0.126	0.889	0.613	0.803	0.446	0.369	0.392	0.332	0.33	0.316	0.399	0.323	0.271	0.172
NCI-H2342	0.305	0.319	0.291	0.274	0.278	1.22	1.07	1.04	1.04	0.815	0.888	0.802	0.819	0.811	0.849	0.708	0.638	0.668
NCI-H2347	0.325	0.328	0.196	0.193	0.205	0.836	0.862	0.531	0.84	0.471	0.419	0.469	0.338	0.442	0.447	0.339	0.369	0.341
NCI-H2405	0.239	0.208	0.217	0.182	0.129	1.07	1	0.998	0.934	1.13	1.1	0.949	0.857	1.06	1.22	1.02	0.978	0.667
NCI-H3122	1.03	0.98	0.812	0.629	0.0849	0.968	0.964	1.04	1.04	0.202	0.201	0.198	0.193	0.186	0.208	0.2	0.171	0.185
PC-3 [JPC-3]	1.07	0.87	0.95	0.666	0.405	1.03	1.01	1.08	0.978	1.17	1.42	0.936	0.495	1.36	1.05	0.924	0.686	0.461
PC-14	0.236	0.261	0.217	0.118	0.0579	1.03	0.959	0.952	0.672	0.14	0.13	0.117	0.101	0.137	0.163	0.139	0.198	0.146
RERF-LC-KJ	0.82	0.656	0.731	0.374	0.237	0.879	0.894	0.879	0.78	0.46	0.477	0.461	0.412	0.494	0.486	0.474	0.408	0.319
SK-LU-1	0.186	0.237	0.186	0.199	0.147	0.843	0.773	0.765	0.426	1.02	0.932	1.1	0.781	1	0.921	0.988	0.879	0.485
SK-MES-1	0.403	0.498	0.541	0.338	0.175	1.06	0.762	0.857	0.648	1.11	1	0.999	0.647	0.929	1.01	1.04	0.944	0.577
